According to patent publication US6506766B1 (Abbott Laboratories, priority 1998, dated 2003):
Read-outs that look alike come from different tables or passages of the source.

Legend:
[1] = target: T1, human glucocorticoid receptor-α [GRX] isoform (Homo sapiens, UniProt P04150); experiment: Radioligand binding with human glucocorticoid receptor cytosol ([3H]-dexamethasone competition)
T1 construct: host or cells: insect SF21 cells (baculovirus)
T1 sequence (P04150 1-777): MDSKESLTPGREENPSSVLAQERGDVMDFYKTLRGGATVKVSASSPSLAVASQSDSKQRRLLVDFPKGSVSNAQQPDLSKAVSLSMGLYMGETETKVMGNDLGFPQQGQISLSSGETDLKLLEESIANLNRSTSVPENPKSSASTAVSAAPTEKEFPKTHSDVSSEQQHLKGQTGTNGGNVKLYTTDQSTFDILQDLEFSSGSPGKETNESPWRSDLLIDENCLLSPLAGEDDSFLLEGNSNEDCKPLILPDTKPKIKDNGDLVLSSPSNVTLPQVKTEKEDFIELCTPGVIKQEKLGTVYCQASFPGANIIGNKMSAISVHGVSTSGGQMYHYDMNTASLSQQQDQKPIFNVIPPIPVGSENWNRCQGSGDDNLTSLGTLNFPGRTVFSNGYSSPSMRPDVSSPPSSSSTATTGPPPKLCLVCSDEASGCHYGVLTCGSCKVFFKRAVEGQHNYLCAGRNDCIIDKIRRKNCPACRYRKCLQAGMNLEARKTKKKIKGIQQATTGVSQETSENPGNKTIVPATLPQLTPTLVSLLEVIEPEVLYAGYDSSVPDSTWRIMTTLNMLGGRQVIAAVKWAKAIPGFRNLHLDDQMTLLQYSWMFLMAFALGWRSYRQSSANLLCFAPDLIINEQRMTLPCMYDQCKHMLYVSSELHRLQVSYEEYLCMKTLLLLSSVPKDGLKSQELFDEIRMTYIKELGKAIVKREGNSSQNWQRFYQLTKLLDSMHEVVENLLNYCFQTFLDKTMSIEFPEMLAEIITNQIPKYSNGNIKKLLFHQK

[2] = target: T2, human progesterone receptor-A [PRA] isoform (Homo sapiens, UniProt P06401); experiment: Radioligand binding with human progesterone receptor cytosol ([3H]-progesterone competition); conditions: read-out: Ki (nM) PR
T2 construct: host or cells: insect SF21 cells (baculovirus)
T2 sequence (P06401 1-769 isoform P06401-2): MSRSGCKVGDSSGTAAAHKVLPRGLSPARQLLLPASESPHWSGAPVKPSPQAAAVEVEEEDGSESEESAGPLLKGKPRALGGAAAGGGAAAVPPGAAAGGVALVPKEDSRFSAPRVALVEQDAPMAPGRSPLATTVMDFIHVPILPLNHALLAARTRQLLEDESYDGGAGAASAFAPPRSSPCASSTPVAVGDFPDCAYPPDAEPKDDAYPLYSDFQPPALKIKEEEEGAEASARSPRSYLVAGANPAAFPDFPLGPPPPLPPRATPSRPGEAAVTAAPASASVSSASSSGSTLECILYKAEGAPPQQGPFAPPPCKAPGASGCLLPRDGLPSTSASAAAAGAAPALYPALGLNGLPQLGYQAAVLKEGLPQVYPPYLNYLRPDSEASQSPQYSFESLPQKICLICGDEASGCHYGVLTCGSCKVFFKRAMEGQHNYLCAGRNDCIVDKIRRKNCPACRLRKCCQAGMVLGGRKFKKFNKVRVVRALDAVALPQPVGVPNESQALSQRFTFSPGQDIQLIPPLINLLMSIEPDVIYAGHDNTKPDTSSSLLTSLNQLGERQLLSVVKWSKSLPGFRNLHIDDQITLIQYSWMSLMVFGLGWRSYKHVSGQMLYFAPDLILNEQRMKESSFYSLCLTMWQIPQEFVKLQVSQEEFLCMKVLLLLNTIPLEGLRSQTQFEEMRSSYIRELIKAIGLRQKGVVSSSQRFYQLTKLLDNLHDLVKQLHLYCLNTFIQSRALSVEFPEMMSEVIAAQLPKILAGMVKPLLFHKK

[3] = GRX cytosol expressed in insect SF21 cells, [3H]-Dex ~0.9 nM, 4° C. overnight, Ki by Cheng-Prusoff, KL ~[…], read-out: Ki (nM) GR
[4] = PRA cytosol expressed in insect SF21 cells, [3H]Prog ~0.8 nM, 4° C. overnight, Ki by Cheng-Prusoff, KL ~4.5 nM

Row | Compound | Ki [1, 3] | Ki [2, 4] | Ki ([1]; read-out: Ki (nM) GR) | Ki [2] | Ki ([1]; Ki (nM) GR)
1 | COc1cccc2c1-c1ccc3c(c1C(=CC1=NC(C)(C)CO1)O2)C(C)=CC(C)(C)N3 [Example 127, 2,5-Dihydro-10-methoxy-2,2,4-trimethyl-5-[(4,5-dihydro-4,4-dimethyl-2-oxazolyl)methylene]-1H-[1]benzopyrano[3,4-f]quinoline] | 29.3 nM | ≥ 10000 nM | – | – | –
2 | COC(=O)Oc1cccc(C2Oc3cccc(OC)c3-c3ccc4c(c32)C(C)=CC(C)(C)N4)c1 (centres unmarked) [Example 84, [3-(2,5-Dihydro-10-methoxy-2,2,4-trimethyl-1H-[1]benzopyrano[3,4-f]quinolin-5-yl)phenyl]methylcarbonate] | – | – | 17.3 nM | ≥ 10000 nM | –
3 | COc1cccc2c1-c1ccc3c(c1C(c1ccncc1)O2)C(C)=CC(C)(C)N3 (centres unmarked) [Example 215, 2,5-Dihydro-10-methoxy-5-(4-pyridyl)-2,2,4-trimethyl-1H-[1]benzopyrano[3,4-f]quinoline] | 20 nM | ≥ 10000 nM | – | – | –
4 | COc1c(O)ccc2c1-c1ccc3c(c1CO2)C(C)=CC(C)(C)N3 [Example 279, 2,5,5-Trihydro-9-hydroxy-10-methoxy-2,2,4-trimethyl-1H-[1]benzopyrano[3,4-f]quinoline] | 12.4 nM | 1900 nM | – | – | –
5 | COc1cccc2c1-c1ccc3c(c1C(c1c[nH]c4ccccc14)O2)C(C)=CC(C)(C)N3 (centres unmarked) [Example 151, 2,5-Dihydro-10-methoxy-5-(3-indolyl)-2,2,4-trimethyl-1H-[1]benzopyrano[3,4-f]quinoline] | 298 nM | ≥ 10000 nM | – | – | –
6 | COc1c(O)ccc2c1-c1ccc3c(c1C(c1cccc(OC(C)=O)c1)O2)C(C)=CC(C)(C)N3 (centres unmarked) [Example 395, 2,5-Dihydro-9-hydroxy-10-methoxy-2,2,4-trimethyl-5-(3-acetoxyphenyl)-1H-[1]benzopyrano[3,4-f]quinoline] | 2.1 nM | 1210 nM | – | – | –
7 | COc1cccc2c1-c1ccc3c(c1C(=Cc1cccc(C(F)(F)F)c1)O2)C(C)=CC(C)(C)N3 [Example 122, 2,5-Dihydro-10-methoxy-2,2,4-trimethyl-5-[[3-(trifluoromethyl)phenyl]methylene-]1H-[1]-benzopyrano[3,4-f]quinoline] | 11.8 nM | 1410 nM | – | – | –
8 | COc1cccc2c1-c1ccc3c(c1C(CCCN1C(=O)c4ccccc4C1=O)O2)C(C)=CC(C)(C)N3 (centres unmarked) [Example 176] | 88 nM | > 10000 nM | – | – | –
9 | COc1cccc2c1-c1ccc3c(c1C(c1cccc(CCOS(C)(=O)=O)c1)O2)C(C)=CC(C)(C)N3 (centres unmarked) [Example 315, 2,5-Dihydro-10-methoxy-5-(3-(2-methanesulfonyloxyethyl)phenyl)-2,2,4-trimethyl-1H-[1]benzopyrano[3,4-f]quinoline] | 13 nM | ≥ 10000 nM | – | – | –
10 | COc1cccc2c1-c1ccc3c(c1C(c1cc(C)cc(C)c1)O2)C(C)=CC(C)(C)N3 (centres unmarked) [Example 27, 5-(3,5-Dimethylphenyl)-2,5-dihydro-10-methoxy-2,2,4-trimethyl-1H-[1]benzopyrano[3,4-f]quinoline] | – | 3580 nM | – | – | 5.2 nM
11 | C=CCC1Oc2ccc(OC(=S)N(C)C)c(OC)c2-c2ccc3c(c21)C(C)=CC(C)(C)N3 (centres unmarked) [Example 431, 9-(Dimethylaminothiocarbonyl)-oxy-10-methoxy-5-(3-propenyl)-2,2,4-trimethyl-1H-2,5-dihydro-[1]benzopyrano[3,4-f]quinoline] | 113 nM | ≥ 10000 nM | – | – | –
12 | COc1cccc2c1-c1ccc3c(c1C(CC(=O)c1ccccc1)O2)C(C)=CC(C)(C)N3 (centres unmarked) [Example 47, 2-(2,5-Dihydro-10-methoxy-2,2,4-trimethyl-1H-[1]benzopyrano[3,4-f]quinolin-5-yl)-1-phenylethanone] | 174 nM | ≥ 10000 nM | – | – | –
13 | COc1cccc2c1-c1ccc3c(c1C([C@@H]1C=C(COC(C)=O)CCC1)O2)C(C)=CC(C)(C)N3 (stereo in doubt) [Example 162] | 6.5 nM | ≥ 10000 nM | – | – | –
14 | COc1cccc2c1-c1ccc3c(c1C([C@@H]1C=C(CN(C)C)CCC1)O2)C(C)=CC(C)(C)N3 (stereo in doubt) [Example 169, rel (5R, 3′S) 2,5-Dihydro-10-methoxy-5-(1-(N,N dimethylamino)methyl-3-cyclohexenyl)-2,2,4-trimethyl-1H-[1]benzopyrano[3,4-f]quinoline] | 300 nM | ≥ 10000 nM | – | – | –
15 | C=CCNC(=O)Oc1ccc2c(c1OC)-c1ccc3c(c1C(CC=C)O2)C(C)=CC(C)(C)N3 (centres unmarked) [Example 442, 10-Methoxy-9-(allylaminocarbonyl)oxy-5-(3-propenyl)-2,2,4-trimethyl-1H-2,5-dihydro-[1]benzopyrano[3,4-f]quinoline] | – | – | 9.1 nM | 8860 nM | –

Further molecules by falling Ki [1, 3], results first:

Row | Ki [1, 3] | Ki [2, 4] | Compound | Ki ([1]; read-out: Ki (nM) GR) | Ki [2] | Ki ([1]; Ki (nM) GR)
16 | 11.4 nM | ≥ 10000 nM | COCOCCC1Oc2cccc(OC)c2-c2ccc3c(c21)C(C)=CC(C)(C)N3 (centres unmarked) [Example 205, 2,5-Dihydro-10-methoxy-5-(2-methoxymethoxyethyl)-2,2,4-trimethyl-1H-[1]benzopyrano[3,4-f]quinoline] | – | – | –
17 | 11.1 nM | ≥ 10000 nM | COc1cccc2c1-c1ccc3c(c1C(c1cccc(O)c1)O2)C(C)=CC(C)(C)N3 (centres unmarked) [Example 13, 3-(2,5-Dihydro-10-methoxy-2,2,4-trimethyl-1H-[1]benzopyrano[3,4-f]quinolin-5-yl)phenol] | – | – | –
18 | 7.6 nM | 1700 nM | C=CCC1Oc2cccc(OC)c2-c2ccc3c(c21)C(C)=CC(C)(C)N3 (centres unmarked) [Example 2, 2,5-Dihydro-10-methoxy-2,2,4-trimethyl-5-(2-propenyl)-1H-[1]benzopyrano[3,4-f]quinoline] | – | – | –
19 | 6.3 nM | 2120 nM | CSCOc1cccc(C2Oc3cccc(OC(F)F)c3-c3ccc4c(c32)C(C)=CC(C)(C)N4)c1 (centres unmarked) [Example 396] | – | – | –
20 | 5.6 nM | ≥ 10000 nM | COc1cccc2c1-c1ccc3c(c1C(c1cc(C)cc(C(C)=O)c1)O2)C(C)=CC(C)(C)N3 (centres unmarked) [Example 110, 1-[3-(2,5-Dihydro-10-methoxy-2,2,4-trimethyl-1H-[1]benzopyrano[3,4-f]quinolin-5-yl)-5-methylphenyl]ethanone] | – | – | –
21 | 4.7 nM | 3270 nM | COc1cccc2c1-c1ccc3c(c1C(c1ccc(Cl)cc1)O2)C(C)=CC(C)(C)N3 (centres unmarked) [Example 28, 5-(4-Chlorophenyl)-2,5-dihydro-10-methoxy-2,2,4-trimethyl-1H-[1]benzopyrano[3,4-f]quinoline] | – | – | –
22 | 1.8 nM | 164 nM | COc1c(O)ccc2c1-c1ccc3c(c1/C(=C/c1ccc(F)cc1)O2)C(C)=CC(C)(C)N3 [Example 372, (Z)9-Hydroxy-10-methoxy-5-((4-fluorophenyl)methylene)-2,2,4-trimethyl-1H-2,5-dihydro-[1]benzopyrano[3,4-f]quinoline] | – | – | –
23 | 1.1 nM | 60.4 nM | COc1c(O)ccc2c1-c1ccc3c(c1C(CC=C(C)C)O2)C(C)=CC(C)(C)N3 (centres unmarked) [Example 283, 2,5-Dihydro-9-hydroxy-10-methoxy-2,2,4-trimethyl-5-(3-methyl-2-butenyl)-1H-[1]benzopyrano[3,4-f]quinoline] | – | – | –
24 | 0.96 nM | 123 nM | C=CCC1Oc2ccc(OC(=O)CCC(C)=O)c(OC)c2-c2ccc3c(c21)C(C)=CC(C)(C)N3 (racemic) [Example 434, (+/−)2,5-Dihydro-9-(4-oxo-pentanoyloxy)-10-methoxy-2,2,4-trimethyl-5-allyl-1H-[1]benzopyrano[3,4-f]quinoline] | – | – | –
25 | 0.41 nM | 2530 nM | COc1c(O)ccc2c1-c1ccc3c(c1/C(=C/c1ccccn1)O2)C(C)=CC(C)(C)N3 [Example 369, Z-9-Hydroxy-10-methoxy-5-(2-picolinylidenyl)-2,2,4-trimethyl-2,5-dihydro-1H-[1]benzopyrano[3,4-f]quinoline] | – | – | –
